Measurements as given in patent publication US20210038607A1, “OXADIAZOLYLTHIOPHENE DERIVATIVES USEFUL AS HISTONE DEACETYLASE INHIBITORS” (Karus Therapeutics Limited, priority 2018, published 2021).

Key:
Human HDAC9 = target: T1, Human HDAC9 (Homo sapiens, UniProt Q9UKV0); assay: HDAC9 biochemical assay, class IIa-specific substrate; conditions: read-out: HDAC Isoform IC50 (nM) 9
T1 construct: amino acids 604-1066 with C-terminal His tag; His (C); host or cells: baculovirus expression system
In short: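 HDAC9 residues 604-1066 (C-terminal His tag, baculovirus-expressed) at 0.06 ng/ul with 50 μM class IIa substrate Boc-Lys(trifluoroacetyl)-AMC in Tris-HCl pH 8.0 buffer with BSA and 1% DMSO. 30 min at room temperature, then developer added; fluorescence read at 360/460 nm Ex/Em.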

Human HDAC1 = target: T2, Human HDAC1 (Homo sapiens, UniProt Q13547); assay: HDAC1 biochemical assay, AMC-labeled peptide substrate; conditions: read-out: HDAC Isoform IC50 (nM) 1
T2 construct: full length with C-terminal His-tag and C-terminal FLAG-tag; His (C); FLAG (C); host or cells: baculovirus expression system
T2 sequence (Q13547 whole entry, canonical isoform): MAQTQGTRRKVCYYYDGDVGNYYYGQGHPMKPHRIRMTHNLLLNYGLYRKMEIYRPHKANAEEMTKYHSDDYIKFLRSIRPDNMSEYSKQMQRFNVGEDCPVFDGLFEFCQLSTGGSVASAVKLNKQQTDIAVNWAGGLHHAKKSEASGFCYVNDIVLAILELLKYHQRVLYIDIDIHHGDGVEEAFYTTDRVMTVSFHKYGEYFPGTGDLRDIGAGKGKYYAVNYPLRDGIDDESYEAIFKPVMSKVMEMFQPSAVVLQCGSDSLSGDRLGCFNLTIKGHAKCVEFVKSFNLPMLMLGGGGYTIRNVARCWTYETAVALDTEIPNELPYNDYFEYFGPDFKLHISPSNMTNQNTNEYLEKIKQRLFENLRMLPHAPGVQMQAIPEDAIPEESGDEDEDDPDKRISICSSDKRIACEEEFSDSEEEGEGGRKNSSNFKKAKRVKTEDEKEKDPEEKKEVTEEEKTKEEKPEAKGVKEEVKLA
In short: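 Baculovirus-expressed full-length human HDAC1 with His and FLAG tags, 0.3 ng/ul, incubated 1 h at 30° C with compound and 50 μM RHKK(Ac)AMC in Tris pH 8.0 buffer with BSA and 1% DMSO. Developer then releases AMC from deacetylated substrate; fluorescence read at 360/460 nm.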

Human HDAC7 = target: T3, Human HDAC7 (Homo sapiens, UniProt Q8WUI4); assay: HDAC7 biochemical assay, class IIa-specific substrate; conditions: read-out: HDAC Isoform IC50 (nM) 7
T3 construct: (a.a. 518-end) with N-terminal GST tag; GST (N); host or cells: baculovirus expression system
T3 sequence (Q8WUI4 518-952 limits assumed): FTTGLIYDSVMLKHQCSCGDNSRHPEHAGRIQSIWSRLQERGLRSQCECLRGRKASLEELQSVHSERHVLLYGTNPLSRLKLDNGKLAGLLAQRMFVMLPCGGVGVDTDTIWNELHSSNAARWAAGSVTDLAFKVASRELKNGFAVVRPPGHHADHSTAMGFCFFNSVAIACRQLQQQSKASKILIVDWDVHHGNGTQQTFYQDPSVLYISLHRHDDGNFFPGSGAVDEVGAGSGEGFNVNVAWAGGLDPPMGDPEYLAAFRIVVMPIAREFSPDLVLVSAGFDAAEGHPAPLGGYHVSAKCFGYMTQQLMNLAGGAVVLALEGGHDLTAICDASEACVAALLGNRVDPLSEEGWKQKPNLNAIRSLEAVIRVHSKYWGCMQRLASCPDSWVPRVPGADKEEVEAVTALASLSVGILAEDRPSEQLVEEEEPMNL
In short: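 GST-tagged HDAC7 (a.a. 518-end, baculovirus-expressed) at 0.001 ng/ul with 50 μM Boc-Lys(trifluoroacetyl)-AMC substrate, 30 min at room temperature in pH 8.0 Tris buffer with BSA, 1% DMSO final. Developer then releases AMC; fluorescence read at 360/460 nm.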

Recombinant human HDAC6 = target: T4, Recombinant human HDAC6 (Homo sapiens, UniProt Q9UBN7); assay: HDAC6 biochemical assay, AMC-labeled peptide substrate; conditions: HDAC6; read-out: HDAC Isoform IC50 (nM) 6
T4 construct: full length, MW=159 kDa; GST (N); host or cells: Sf9 insect cells (baculovirus)
T4 sequence (Q9UBN7 1-1215): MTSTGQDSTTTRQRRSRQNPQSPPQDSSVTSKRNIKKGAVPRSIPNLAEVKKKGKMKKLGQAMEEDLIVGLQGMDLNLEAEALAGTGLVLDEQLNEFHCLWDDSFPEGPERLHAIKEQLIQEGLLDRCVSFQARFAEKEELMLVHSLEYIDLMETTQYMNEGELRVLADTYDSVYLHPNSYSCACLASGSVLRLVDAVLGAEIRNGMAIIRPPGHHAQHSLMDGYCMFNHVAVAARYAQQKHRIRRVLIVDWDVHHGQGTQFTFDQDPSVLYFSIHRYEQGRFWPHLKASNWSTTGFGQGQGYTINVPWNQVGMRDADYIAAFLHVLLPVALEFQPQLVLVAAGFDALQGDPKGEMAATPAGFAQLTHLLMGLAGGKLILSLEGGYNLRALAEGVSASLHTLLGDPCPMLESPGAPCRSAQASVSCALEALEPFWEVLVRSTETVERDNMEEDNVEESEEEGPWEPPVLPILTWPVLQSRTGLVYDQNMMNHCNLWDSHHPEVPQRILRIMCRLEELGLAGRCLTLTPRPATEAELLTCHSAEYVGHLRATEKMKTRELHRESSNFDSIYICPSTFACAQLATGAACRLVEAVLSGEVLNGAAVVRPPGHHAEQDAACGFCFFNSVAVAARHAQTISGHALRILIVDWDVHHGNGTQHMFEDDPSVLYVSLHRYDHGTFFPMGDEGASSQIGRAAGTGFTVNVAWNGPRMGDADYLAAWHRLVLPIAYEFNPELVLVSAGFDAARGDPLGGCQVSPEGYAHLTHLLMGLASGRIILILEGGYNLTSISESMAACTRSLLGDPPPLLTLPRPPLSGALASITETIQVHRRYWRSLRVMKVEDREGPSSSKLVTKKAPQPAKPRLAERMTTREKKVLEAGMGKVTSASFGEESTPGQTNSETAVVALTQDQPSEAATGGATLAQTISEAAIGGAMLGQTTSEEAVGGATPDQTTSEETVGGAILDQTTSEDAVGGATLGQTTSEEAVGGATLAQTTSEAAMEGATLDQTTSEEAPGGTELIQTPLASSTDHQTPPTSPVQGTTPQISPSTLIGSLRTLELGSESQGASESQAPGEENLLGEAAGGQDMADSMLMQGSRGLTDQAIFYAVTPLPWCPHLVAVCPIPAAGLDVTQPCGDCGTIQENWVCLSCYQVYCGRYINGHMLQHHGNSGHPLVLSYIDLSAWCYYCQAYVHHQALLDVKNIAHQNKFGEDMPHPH
In short: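 Two-step fluorogenic read-out: enzyme deacetylates 50 μM RHKK(Ac)AMC for 1 h at 30° C in pH 8.0 Tris buffer with BSA and 1% DMSO, then developer cleavage gives signal at Ex 360/Em 460. Enzyme: 0.3 ng/ul recombinant full-length human HDAC6, GST-tagged, Sf9-expressed.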

Human HDAC4 = target: T5, Human HDAC4 (Homo sapiens, UniProt P56524); assay: HDAC4 biochemical assay, class IIa-specific substrate; conditions: read-out: HDAC Isoform IC50 (nM) 4
T5 construct: amino acids 627-1085 with N-terminal GST tag; GST (N); host or cells: baculovirus expression system
T5 sequence (P56524 627-1084 limits assumed): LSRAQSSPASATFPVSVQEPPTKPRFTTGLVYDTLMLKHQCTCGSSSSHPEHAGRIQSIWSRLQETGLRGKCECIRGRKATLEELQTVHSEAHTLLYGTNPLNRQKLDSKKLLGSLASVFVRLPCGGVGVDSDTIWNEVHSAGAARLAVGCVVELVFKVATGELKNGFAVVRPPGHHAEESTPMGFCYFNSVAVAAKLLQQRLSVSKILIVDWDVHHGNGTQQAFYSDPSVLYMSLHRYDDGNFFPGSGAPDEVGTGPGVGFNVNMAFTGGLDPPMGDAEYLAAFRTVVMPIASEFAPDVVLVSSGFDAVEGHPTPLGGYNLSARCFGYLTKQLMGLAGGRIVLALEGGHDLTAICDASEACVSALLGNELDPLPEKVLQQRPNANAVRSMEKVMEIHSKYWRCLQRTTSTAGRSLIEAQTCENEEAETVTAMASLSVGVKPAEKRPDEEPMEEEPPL
In short: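 GST-tagged human HDAC4 (aa 627-1085, baculovirus) at 0.004 ng/ul was incubated 30 min at room temperature with 50 μM class IIa-specific substrate BOC-Lys(trifluoroacetyl)-AMC in Tris-HCl pH 8.0 buffer with BSA, 1% DMSO. Developer then released AMC, read at 360/460 nm.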

Human HDAC5 = target: T6, Human HDAC5 (Homo sapiens, UniProt Q9UQL6); assay: HDAC5 biochemical assay, class IIa-specific substrate; conditions: read-out: HDAC Isoform IC50 (nM) 5
T6 construct: full length with C-terminal His tag, MW=51.1 kDa; His (C); host or cells: baculovirus expression system
T6 sequence (Q9UQL6 656-1122 limits assumed): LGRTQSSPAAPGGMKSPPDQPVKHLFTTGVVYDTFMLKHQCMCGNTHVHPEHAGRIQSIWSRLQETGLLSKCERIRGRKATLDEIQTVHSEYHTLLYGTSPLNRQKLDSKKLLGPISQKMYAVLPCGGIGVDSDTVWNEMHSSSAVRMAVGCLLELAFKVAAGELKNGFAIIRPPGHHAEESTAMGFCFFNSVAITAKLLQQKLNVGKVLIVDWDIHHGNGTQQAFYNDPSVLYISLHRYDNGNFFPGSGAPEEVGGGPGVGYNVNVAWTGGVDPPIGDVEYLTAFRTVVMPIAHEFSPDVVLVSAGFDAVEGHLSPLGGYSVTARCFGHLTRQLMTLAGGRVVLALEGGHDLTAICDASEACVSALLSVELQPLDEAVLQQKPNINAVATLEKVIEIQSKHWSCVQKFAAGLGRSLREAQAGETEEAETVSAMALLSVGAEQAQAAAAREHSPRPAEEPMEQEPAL
In short: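 Full-length C-terminal His-tagged HDAC5 from baculovirus (0.05 ng/ul) incubated 30 min at room temperature with 50 μM Boc-Lys(trifluoroacetyl)-AMC and compound, Tris pH 8.0 buffer with BSA, 1% DMSO. Developer then releases AMC; fluorescence 360/460 nm.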

T1 sequence (Q9UKV0 604-1066 isoform Q9UKV0-5): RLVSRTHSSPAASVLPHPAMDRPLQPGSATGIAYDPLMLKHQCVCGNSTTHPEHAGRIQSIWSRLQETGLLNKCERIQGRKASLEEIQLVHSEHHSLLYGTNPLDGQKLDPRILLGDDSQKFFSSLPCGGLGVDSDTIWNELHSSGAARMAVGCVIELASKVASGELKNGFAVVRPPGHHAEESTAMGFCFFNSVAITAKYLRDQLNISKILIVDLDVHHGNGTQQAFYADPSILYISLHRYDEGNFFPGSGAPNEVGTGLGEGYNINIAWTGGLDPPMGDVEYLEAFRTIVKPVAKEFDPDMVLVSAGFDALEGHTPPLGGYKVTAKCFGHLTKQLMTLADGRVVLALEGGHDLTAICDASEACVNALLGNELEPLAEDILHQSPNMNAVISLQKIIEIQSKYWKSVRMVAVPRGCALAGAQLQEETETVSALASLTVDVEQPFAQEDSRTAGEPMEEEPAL

Compound | IC50 (Human HDAC9) [nM] | IC50 (Human HDAC1) [nM] | IC50 (Human HDAC7) [nM] | IC50 (Recombinant human HDAC6) [nM] | IC50 (Human HDAC4) [nM] | IC50 (Human HDAC5) [nM]
Cc1ncnc(C)c1N(Cc1ccc(-c2noc(C(F)(F)F)n2)s1)c1cnccn1 [Example DC, 4,6-Dimethyl-N-(pyrazin-2-yl)-N-({5-[5-(trifluoromethyl)-1,2,4-oxadiazol-3-yl]thiophen-2-yl}methyl)pyrimidin-5-amine] | ≤ 1000 | > 10000 | ≤ 500 | ≤ 10000 | ≤ 500 | ≤ 500
FC(F)(F)c1nc(-c2ccc(CN(c3cnccn3)c3ccc4ccncc4n3)s2)no1 [Example Y, N-(Pyrazin-2-yl)-N-({5-[5-(trifluoromethyl)-1,2,4-oxadiazol-3-yl]thiophen-2-yl}methyl)-1,7-naphthyridin-2-amine] | ≤ 1000 | > 10000 | ≤ 1000 | ≤ 1000 | ≤ 500 | ≤ 1000
FC(F)(F)c1nc(-c2ccc(CN(c3cnccn3)c3cnc4[nH]ccc4n3)s2)no1 [Example BN, N-{5H-Pyrrolo[2,3-b]pyrazin-2-yl}-N-({5-[5-(trifluoromethyl)-1,2,4-oxadiazol-3-yl]thiophen-2-yl}methyl)pyrazin-2-amine] | ≤ 500 | > 10000 | ≤ 500 | ≤ 1000 | ≤ 500 | ≤ 500
FC(F)(F)c1cncc(N(Cc2ccc(-c3noc(C(F)(F)F)n3)s2)c2cnccn2)c1 [Example AQ, N-({5-[5-(Trifluoromethyl)-1,2,4-oxadiazol-3-yl]thiophen-2-yl}methyl)-N-[5-(trifluoromethyl)pyridin-3-yl]pyrazin-2-amine] | ≤ 10000 | > 10000 | ≤ 10000 | ≤ 10000 | ≤ 10000 | ≤ 1000
FC(F)(F)c1cc(N(Cc2ccc(-c3noc(C(F)(F)F)n3)s2)c2cnccn2)ncn1 [Example CJ, N-(Pyrazin-2-yl)-6-(trifluoromethyl)-N-({5-[5-(trifluoromethyl)-1,2,4-oxadiazol-3-yl]thiophen-2-yl}methyl)pyrimidin-4-amine] | ≤ 10000 | > 10000 | ≤ 10000 | ≤ 10000 | ≤ 10000 | ≤ 10000
COc1cnnc(N(Cc2ccc(-c3noc(C(F)(F)F)n3)s2)c2cnccn2)c1 [Example DV, 5-Methoxy-N-(pyrazin-2-yl)-N-({5-[5-(trifluoromethyl)-1,2,4-oxadiazol-3-yl]thiophen-2-yl}methyl)pyridazin-3-amine] | ≤ 10000 | > 10000 | ≤ 10000 | ≤ 10000 | ≤ 10000 | ≤ 1000
COc1cc(N(Cc2ccc(-c3noc(C(F)(F)F)n3)s2)c2cnccn2)ncn1 [Example CH, 6-Methoxy-N-(pyrazin-2-yl)-N-({5-[5-(trifluoromethyl)-1,2,4-oxadiazol-3-yl]thiophen-2-yl}methyl)pyrimidin-4-amine] | ≤ 10000 | > 10000 | ≤ 10000 | ≤ 10000 | ≤ 10000 | ≤ 10000
Cc1ncc(N(Cc2ccc(-c3noc(C(F)(F)F)n3)s2)c2cnccn2)nc1C [Example BT, 5,6-Dimethyl-N-(pyrazin-2-yl)-N-({5-[5-(trifluoromethyl)-1,2,4-oxadiazol-3-yl]thiophen-2-yl}methyl)pyrazin-2-amine] | ≤ 10000 | > 10000 | ≤ 10000 | ≤ 10000 | ≤ 10000 | ≤ 10000
FC(F)(F)c1cnnc(N(Cc2ccc(-c3noc(C(F)(F)F)n3)s2)c2ccc(N3CCCC3)nn2)c1 [Example EW, 6-(Pyrrolidin-1-yl)-N-({5-[5-(trifluoromethyl)-1,2,4-oxadiazol-3-yl]thiophen-2-yl}methyl)-N-[5-(trifluoromethyl)pyridazin-3-yl]pyridazin-3-amine] | ≤ 10000 | > 10000 | ≤ 10000 | ≤ 10000 | ≤ 10000 | ≤ 10000
Cc1cc(C)nc(N(Cc2ccc(-c3noc(C(F)(F)F)n3)s2)c2cnccn2)n1 [Example AZ, 4,6-Dimethyl-N-(pyrazin-2-yl)-N-({5-[5-(trifluoromethyl)-1,2,4-oxadiazol-3-yl]thiophen-2-yl}methyl)pyrimidin-2-amine] | > 10000 | > 10000 | > 10000 | ≤ 10000 | > 10000 | ≤ 10000
FC(F)(F)c1cnnc(N(Cc2ccc(-c3noc(C(F)(F)F)n3)s2)c2cccnc2)c1 [Example EI, N-(Pyridin-3-yl)-5-(trifluoromethyl)-N-({5-[5-(trifluoromethyl)-1,2,4-oxadiazol-3-yl]thiophen-2-yl}methyl)pyridazin-3-amine] | ≤ 10000 | > 10000 | ≤ 10000 | ≤ 10000 | ≤ 10000 | ≤ 1000
FC(F)(F)c1nc(-c2ccc(CN(c3cnccn3)c3ccc4nccn4n3)s2)no1 [Example DT, N-{Imidazo[1,2-b]pyridazin-6-yl}-N-({5-[5-(trifluoromethyl)-1,2,4-oxadiazol-3-yl]thiophen-2-yl}methyl)pyrazin-2-amine] | ≤ 1000 | > 10000 | ≤ 500 | ≤ 1000 | ≤ 1000 | ≤ 500
